Data published in patent publication US12241058B2, “Recombinant microbial system for directed evolution of glycocins and method of preparation thereof” (COUNCIL OF SCIENTIFIC & INDUSTRIAL RESEARCH, priority 2018, dated 2025).
No end group written: not given here. *: point of attachment. X1 = OC[C@H]1O[C@@H](O[C@H]2[C@H](O)[C@@H](O)[C@H](*)O[C@@H]2CO)[C@H](O)[C@@H](O)[C@@H]1O

Experiments:
L. monocytogenes EGD-e = test: Agar diffusion test (ADT) of cell lysates, zone of growth inhibition, with PAS staining for glycosylation; type: cell-based, Listeria monocytogenes; conditions: for Zone of inhibition as well as glycosylation positive: ADT against L. monocytogenes, cleavage buffer treated cell lysate, glycosylation by PAS staining
[1] = Cytotoxicity MTT reduction assay; type: cell-based; conditions: human; 50% cell death, THP-1 cells, MTT, 18-24 hours
Procedure: (§1) Cytotoxicity of Enterocin 96 and its variants (neo-glycocins) against THP-1 cells and anti-cancer potential against HepG2 cells was measured by the conventional MTT reduction assay. HepG2 and THP-1 cells (1×10^4 cells/well) were seeded into the 96-well plate and cultured at 37° C. in an atmosphere of 5% CO2 to allow them to adhere overnight. After 24 hours, the cells were exposed to Enterocin 96 and its variants (neo-glycocins) at various concentrations (75-1000 μM) for 18-24 hours. After the incubation period, 150 μl media and the suspended cells were discarded and washed with 200 μl PBS. After that, 200 μl of fresh media was added followed by 20 μl of MTT (5 mg/mL) into each well in the 96-well plate and incubated for 4 h in CO2 incubator. One hundred and fifty microlitres of medium with MTT was removed from every well and 100 μl DMSO was added to each well to solubilize the formazan crystal by incubating for 20 min in CO2 incubator. Finally, the plates were read at 570 nm by using Multiskan Go plate-reader (Thermo Scientific) and then percentage of cell viability was determined.

[2] = system: L. monocytogenes MTCC 839; test: Agar diffusion test (ADT) of cleaved neo-glycocins; type: cell-based, Listeria monocytogenes; conditions: L. monocytogenes MTCC 839, FIG. 5Bd-e
E. coli MTCC 1610 = test: Agar diffusion test (ADT) of cleaved neo-glycocins; type: cell-based
Excerpt: (§2) FIG. 5B (d-i): Confirmation of antimicrobial activity of cleaved neo glycocins against bacterial strains namely L. monocytogenes EGDe (FIG. 5Bd-e): Vibrio cholera MTCC 3904 (FIG. 5Bf), E. coli 1610 (FIG. 5Bg), Bacillus lichenmformis MTCC 9857 (FIG. 5Bh) and Bacillus halodurans MTCC 7181 (FIG. 5Bi) using ADT;
Where in #1, f and g: cell lysate of cleavage buffer treated C13T, a variant of Enterocin 96 having SEQ ID NO: 10; #2, f and g: positive control parent peptide Enterocin 96 diglycosylated having SEQ ID NO: 9; #3, f and g: negative control/lysis buffer; #4.f and g: is negative control/cleavage buffer;
(§3) The cell lysate containing glycocins were directly subjected to agar diffusion test (ADT) using L. monocytogenes EGD-e. In ADT, the agar plates seeded with L. monocytogenes EGD-e (approximately 10^7 cells) were prepared. Approximately 100 μL lysate containing glycocin or its variants (neo-glycocin) (SEQ ID NO: 9, SEQ ID NO: 10 and SEQ ID NO: 11) were applied into the wells in the seeded plate followed by incubation of the plate at 4° C. for 1 h. Presence of inhibition zones around the wells was checked post overnight incubation of the plates at 37° C. The antimicrobial activities of the glycocin and neo-glycocin were determined by monitoring the zone of growth inhibition on the plates.

[3] = system: Bacillus licheniformis MTCC 9857; test: Agar diffusion test (ADT) of cleaved neo-glycocins; type: cell-based
Excerpt: as §2
Wherein #1, h and i: cell lysate of cleavage buffer treated C13T, a variant of Enterocin 96 having SEQ ID NO: 10; #2, h and i: positive control parent peptide Enterocin 96 diglycosylated having SEQ ID NO: 9; #3, h and i: negative control/cleavage buffer; #4, h and i: is nisin (1 mg/ml).
as §3

HepG2 cells = test: Anti-cancer MTT reduction assay; type: cell-based
Procedure: as §1

L. monocytogenes [4] = test: pH and heat stability, bioactivity verified using ADT assay; conditions: 121° C. for 15 minutes
THP-1 cells = test: Cytotoxicity MTT reduction assay; type: cell-based
Procedure: as §1

bacterial strains = test: Antimicrobial spectrum by ADT against bacterial strains; type: cell-based; conditions: FIG. 5B a-i
Procedure: as §2
Simultaneously, to check the change in spectrum of bioactivity of neo-glycocins, the agar plates of L. monocytogenes EGD-e seeded with approximately 10^7 bacterial cells were prepared. A 100 μL of cell lysate of mutants were added into the each well and then the plate was incubated at 4° C. for 1 h followed by overnight incubation at 37° C. The presence of inhibition zones around the wells was checked. The antimicrobial activity was determined by monitoring the zone of growth inhibition. […] The glycosylation status of the neo-glycocin produced from the selected mutant were analyzed using PAS staining and MALDI-TOF and LC-ESI-MS analysis as discussed below.

human red blood cells = test: Hemolytic assay; type: cell-based
Procedure: Samples were prepared within 3 h of performing the assay. Neo-glycocins stock solutions of 1 mg/ml were prepared by dissolving the neo-glycocins in PBS (10 mM phosphate buffer, pH 7.4); the samples were mixed by inversion to ensure neo-glycocins were completely dissolved in PBS. To prepare the Human Red Blood Cell (hRBC) solution, blood was collected from healthy individual and RBCs were isolated following standard procedure. Informed consent was acquired from all donors and this work was carried out in compliance with the ethical committee guidelines of CSIR-IMTECH with IEC NO SUIEC/14/03.
2 ml whole blood from healthy individual was centrifuged for 30 mins at 1000 rpm(4° C.). Layer of RBCs was collected and diluted with equal volume of 1×PBS and mixture was centrifuged three times for 10 mins at 1000 rpm, 4° C. To prepare 4% RBC solution, 1 ml of RBC were mixed with 24 ml 1×PBS. To examine the hemolysis property of neo-glycocins (75-1000 μM), 20 μl of freshly prepared neo-glycocins solution was mixed with 180 μl of freshly prepared hRBC solution and was placed at 37° C. for 1 h. A total of 20 μl of PBS buffer only and 20 μl of Triton X-100 1% (w/v) were mixed with 180 μl of hRBC solution as negative and positive controls, respectively. After 1 h of incubation, all samples were centrifuged at 2500 rpm for 10 min. A total of 100 μl of supernatant was collected, and the release of hemoglobin was monitored by measuring the absorbance of the supernatant at 570 nm with a Multiskan Go plate-reader (Thermo Scientific). Hemolysis percentage for each sample was calculated by dividing sample's absorbance on positive control absorbance (complete hemolysis) multiplied by 100.

L. monocytogenes [5] = test: Determination of the MIC against L. monocytogenes (96-well broth dilution); type: cell-based, Listeria monocytogenes; conditions: Minimum Inhibitory Concentration against L. monocytogenes, 18 h at 37° C.
Procedure: One colony of an indicator strain (L. monocytogenes) was picked from an NB agar plate, inoculated to liquid NB medium and grown at 37° C., in a shaking incubator until OD^600 nm of 0.5 was reached. Then, the culture was diluted with NB medium and serial twofold dilutions with NB medium were made. Hundred microliters of Enterocin 96 solution (1 mg/ml in MQ) were transferred to a 96-well plate and mixed with 100 μl previously prepared cell suspension of sensitive strain. Similarly, positive control Nisin (1 mg/ml in MQ, Sigma Cat. # N5764), 100 μl mixture of NB medium with the Listeria, and negative controls (media alone, untreated indicator strain). 100 μL mixture of NB medium were prepared and dispersed in the same 96-well plates. The plate was incubated for 18 h at 37° C. in a shaking incubator. After incubation, the growth of bacteria was evaluated visually and by a plate reader. The analyses were performed in triplicate. Similarly, MIC of other variants of Enterocin 96 (neo-glycocins) was determined using above described method.

## MASKRDCNLMKACCAGQAVTYAIHSLLNRLGGDC(X1)SDPAGCNDIVRKYCK (cysteines drawn unpaired) [SEQ ID NO: 40]
L. monocytogenes EGD-e
  Zone of inhibition as well as glycosylation positive: positive
L. monocytogenes EGD-e; listed as S34C
  Zone of inhibition as well as glycosylation positive: Yes
L. monocytogenes EGD-e; ADT, L. monocytogenes EGDe, FIG. 5Bd-e
  Bioactivity compared with the parent peptide: equally bioactive
[1]
  IC50: 314.7 ± 0.18 µM
[2]
  Bioactivity compared with the parent peptide: equally bioactive

## MASKRDCNLMKACCAGQAVTYAIHSLLNRLGGDS(X1)SDPAGCNDIVRKYCK (cysteines drawn unpaired) [SEQ ID NO: 9, Enterocin 96, reference compound]
E. coli MTCC 1610
  Bioactivity against Gram negative bacteria E. coli MTCC 1610: not
[3]
  Bioactivity against Gram positive spore forming bacteria Bacillus licheniformis MTCC 9857: not
[1]
  IC50: 194.1 ± 0.119 µM

## MASKRDCNLMKATCAGQAVTYAIHSLLNRLGGDS(X1)SDPAGCNDIVRKYCK (cysteines drawn unpaired) [SEQ ID NO: 10]
E. coli MTCC 1610
  Bioactivity against Gram negative bacteria E. coli MTCC 1610: observed
Water solubility
  Water solubility: water soluble
[3]
  Bioactivity against Gram positive spore forming bacteria Bacillus licheniformis MTCC 9857: observed
HepG2 cells; HepG2, FIG. 6C
  Cytotoxicity compared with Nisin and Enterocin 96: no significant change
L. monocytogenes [4]
  Bioactivity against L. monocytogenes post autoclaving: retain bioactivity
L. monocytogenes EGD-e
  Zone of inhibition as well as glycosylation positive: positive
L. monocytogenes EGD-e; listed as C13T
  Zone of inhibition as well as glycosylation positive: Yes
[1]
  IC50: 248.6 ± 0.105 µM
THP-1 cells; THP-1, FIG. 6B
  Cytotoxicity compared with Nisin and Enterocin 96: no significant change
Bacterial strains
  Antimicrobial spectrum compared with native glycocin / Nisin and Enterocin 96: different antimicrobial spectrum
Bacterial strains; listed as C13T
  Antimicrobial spectrum compared with native glycocin / Nisin and Enterocin 96: improved antibacterial spectrum
Human red blood cells; FIG. 6A
  Hemolysis compared with Nisin and Enterocin 96: no significant change

## neo-glycocin with pediocin box (YYGNGV): MASKYYGNGVKRDCNLMKACCAGQAVTYAIHSLLNRLGGDSSDPAGCNDIVRKYCK (not fully specified; cysteine pairing not given here) [SEQ ID NO: 11]
HepG2 cells; 50% cell (cancerous) death, HepG2 cells, MTT, 18-24 hours
  IC50: 192.1 ± 0.135 µM
L. monocytogenes EGD-e
  Zone of inhibition as well as glycosylation positive: positive
L. monocytogenes EGD-e; listed as PedioEnt96
  Zone of inhibition as well as glycosylation positive: Yes
L. monocytogenes EGD-e; monoglycosylated length and glycan variant, strain not specified
  Activity against L. monocytogenes compared with diglycosylated glycocin: as active as diglycosylated glycocin
THP-1 cells; 50% cell death, THP-1 cells, MTT, 18-24 hours
  IC50: 233.6 ± 0.132 µM
Bacterial strains
  Antimicrobial spectrum compared with native glycocin / Nisin and Enterocin 96: different antimicrobial spectrum
Human red blood cells
  Hemolysis (MHC in μM): 600 µM
L. monocytogenes [5]
  Anti-bacterial activity (MIC in μM): >0.54 µM
